Test results published in patent publication US5763430A, “Method of treating a viral infection by administering a steroid compound” (priority 1995, dated 1998).
≈ marks a conversion by molar mass, not a printed value.

Experiments:
[1] = tested on: human microvascular cells; test: inhibition of endothelial cell cord formation in vitro; type: cell-based; as to effect on endothelial cord formation: key: +: Inhibition of angiogenesis; -: No inhibition of angiogenesis; Toxic; *: cell rounding @ 10 µg/ml
Excerpt: Endothelial cells have the capacity in vitro to form tubular aggregates resembling capillaries in various early stages of formation. This conversion occurs under relatively specific conditions, in which essential growth factors along with an effective substratum are provided. It has been shown that both the interaction of growth factors with the endothelial cell and its attachment to a substratum activate the NHE. The activation of this exchanger is believed to be required for subsequent morphologic transformation of the endothelial cell into a multicellular tubular structure.
To assess the effect of compounds on the cord-like structures formed by human microvascular cells when plated in the presence of VEGF (Vascular Endothelial Growth Factor) and basic fibroblast growth factor on a collagen matrix, a standard cord formation assay was used.

[2] = tested on: chick embryo vitelline capillaries; test: chick embryo vitelline capillary regression assay; type: in vivo
Method: Using the chick embryo vitelline capillaries assay, compounds were tested for their ability to induce capillary regression. Each compound was applied in 0.1 ml of 15% Ficol 400 and PBS onto the embryo, and vascular regression was assessed after 60 minutes.
The 3-day chick embryo consists of an embryonic disc from which numerous vessels emerge and return, forming a "FIG. 8"-shaped structure--the embryo in the center with vascular loops extending outward over both poles. […] Following a lag period of around 15 minutes, the constriction of continuity between capillary and secondary vessels, generally on the "venous" side, was observed. Continued pulsatile blood flow progressed, resulting in a "swelling" of the blind tube, followed by a pinching off of the remaining connection and formation of an enclosed vascular sac resembling a "blood island." This process progressed until only the largest vessels remained intact.

Human melanoma WM 1167 = test: cytotoxic activity against cancer cells; type: cell-based
Lewis lung carcinoma [3] = test: cytotoxic activity against cancer cells; type: cell-based
human melanoma = test: effect on growth of human melanoma over time / mode of cell death; type: cell-based
C. albicans = test: antibiotic activity (MIC); type: cell-based; settings: Candida albicans; C. albicans; read-out: MIC
Excerpt: (§1) Thus, it is possible to achieve an antimicrobial steroid with or without squalamine-like pharmacological activity.

E. coli = test: antibiotic activity (MIC); type: cell-based; settings: Escherichia coli; E. coli; read-out: MIC
Excerpt: as §1

P. aerug = test: antibiotic activity (MIC); type: cell-based; settings: P. aerug; read-out: MIC
Excerpt: as §1

S. aureus = test: antibiotic activity (MIC); type: cell-based; settings: Staphylococcus aureus; S. aureus; read-out: MIC
Excerpt: as §1

[4] = tested on: stage 59-60 Xenopus tadpole; test: Xenopus tadpole assay
B16 melanoma = test: suppression of growth of B16 melanoma in C57B mice; type: in vivo, mouse; settings: 10 mg/kg every 3 days alone, FIG. 12
Method: The growth of B16 melanoma in C57B mice is dependent upon neovascularization.
Using the growth of B16 melanoma cells in C57B mice, a recognized model for the evaluation of inhibitors of angiogenesis on the growth of cancers, the effects of subcutaneous, intraperitoneal and oral administration of squalamine were evaluated.
Based on the idea that tumor growth involves both the clonal expansion of a malignant cell along with the development of a supporting vascular supply, a combination of compound 1436 with squalamine was tested to determine whether it would achieve a synergistic effect on solid tumor growth. This concept was evaluated in the B16 melanoma model.
Animals were implanted with B16 melanoma followed by treatment with compound 1436 or 1256 administered in a combined schedule or separately. […] Thus, a combination of these two compounds achieves a therapeutic benefit in tumors dependent on neovascularization that may prevent metastatic spread.

[5] = tested on: Human ovarian carcinoma SKOV3; test: growth inhibition in vitro; type: cell-based; settings: SKOV3, 10 μg/ml
Method: (§2) As set forth in Table 7 below, all malignant tumors evaluated in tissue culture, endothelial cells and vascular smooth muscle cells were sensitive to inhibition. Thus, compound 1436 has application in the control of growth factor dependent proliferation of many types of tissue.
Using the assay described above, the anticancer effects of compound 1437 against several cancer lines was assessed.

[6] = tested on: Human colon carcinoma HT29; test: growth inhibition in vitro; type: cell-based; settings: HT29, 10 μg/ml
Excerpt: as §2

[7] = tested on: Human colon carcinoma SW948; test: growth inhibition in vitro; type: cell-based; settings: SW948, 10 μg/ml
Excerpt: as §2

[8] = tested on: Human coronary artery smooth muscle cells; test: growth inhibition in vitro; type: cell-based; settings: 10 μg/ml
Excerpt: as §2

Human melanoma WM 1617 = test: growth inhibition in vitro; type: cell-based; settings: WM 1617, 10 μg/ml
Excerpt: as §2

[9] = tested on: Human microvascular endothelial cells; test: growth inhibition in vitro; type: cell-based; settings: 10 μg/ml
Excerpt: as §2

Lewis lung carcinoma [10] = test: growth inhibition in vitro; type: cell-based; settings: 10 μg/ml
Excerpt: as §2

Murine B16 melanoma = test: growth inhibition in vitro; type: cell-based; settings: Murine B16 melanoma, 10 μg/ml
Excerpt: as §2

Murine L1210 leukemia = test: growth inhibition in vitro; type: cell-based; settings: 10 μg/ml
Excerpt: as §2

[11] = tested on: bovine pulmonary endothelial cells; test: growth inhibition in vitro; type: cell-based; settings: 10 μg/ml
Excerpt: as §2

[12] = tested on: human umbilical venous endothelial cells; test: growth inhibition in vitro; type: cell-based; settings: 10 μg/ml
Excerpt: as §2

[13] = tested on: L1210 lymphoblastic leukemia cells; test: mouse model of leukemia; type: in vivo; settings: highest dose (10 mg/kg every 3 days ip), FIG. 11
Excerpt: C57B mice were inoculated with L1210 lymphoblastic leukemia cells at an inoculum that causes leukemia in 100% of animals.

HIV clinical isolate = test: inhibition of HIV replication in PHA-stimulated lymphocytes (HIV P-24 antigen Elisa); type: cell-based; settings: 20 μM
Excerpt: (§3) Results are tabulated below.

[14] = viability of lymphocytes in HIV test; type: cell-based; settings: human
Excerpt: as §3

[15] = effect on fasting blood glucose in mice; type: in vivo, mouse (male CD-1); settings: i.v.
Method: To study the effect of steroid administrator or the NHE responsible for secretion of insulin, several of the aminosterols from shark liver were administered to fasting mice. Male CD-1 mice were assigned to one of four treatment groups. Whole blood glucose was tested using glucometer (Lifescan Glucometer II and One Touch test strips). Statistical analysis was via one-way analysis of variance (ANOVA) followed by subsequent Bonferonni's t-test.

[16] = tested on: human coronary artery smooth muscle; test: proliferation of human coronary artery smooth muscle in vitro; type: cell-based; settings: FIG. 15
Excerpt: Aminosterols of the invention may also have utility in inhibiting the growth factor mediated proliferation of smooth muscle within the artery. Following coronary angioplasty, reocclusion commonly occurs, secondary to reparative proliferation of the vascular smooth muscle within the wall of the surgically manipulated blood vessel. This process generally takes place over the course of 7-10 days. To evaluate whether an agent could prevent the growth factor mediated proliferation of smooth muscle within the artery, compound 1436 was evaluated in vitro for its effect on the proliferation of human coronary artery smooth muscle. Results for compound 1436 are shown in FIG. 13, and those for squalamine are shown in FIG. 14, with FIG. 15 being a composite logarithmic plot.

[17] = effect on growth and weight gain of growing mice; type: in vivo, mouse (C57B)
Method: Animals were dosed QTD (i.p.) starting on Day 1. […] Animals receiving 5 mg/kg QTD experienced about a 50% reduction in growth, compared to untreated controls, while animals receiving 1 mg/kg QTD were affected by about 10%. […] They appeared very much like hypophysectamized animals might appear.

[18] = effect on arterial resistance in the rat; type: in vivo; settings: 5 mg/kg i.v.
Method: A 200-g rat was catheterized in the right carotid artery, and the compound was introduced over a ten-second period to a total dosage of 5 mg/kg. Within 30 seconds, the mean arterial pressure had fallen from about 100 mm Hg to about 70 mm Hg, with a marked reduction in pulse pressure from about 40 mm to about 10 mm. […] If cardiac output was basically unaffected, reduction in blood pressure would have resulted principally from a reduction in system resistance.
At that time, 40 μg of noradrenaline was introduced.

[19] = tested on: heart of a juvenile Xenopus laevis frog; test: persistence of beating of isolated frog heart; settings: 10 μg/ml
Method: To determine if compound 1436 has such utility, the following experiment was performed. The heart of a juvenile Xenopus laevis frog was dissected from the living animal. The heart was placed into a Petri dish containing Krebs-Ringer buffer with adrenaline 50 μg/ml, and examined with the naked eye. At room temperature, the heart continued beating in a coordinated fashion (atrial beat followed by ventricular beat) for about one hour. In the presence of 10 μg/ml of compound 1436, spontaneous beating persisted up to 24 hours.

[20] = tested on: stage 59-60 Xenopus tadpole; settings: 10 μg/mL, Table II
human lymphocytes = test: inhibition of mitogen (PHA)-stimulated growth of human T-cells; settings: Homo sapiens, Lymphocyte, read-out: inhibition of blast transformation
Method: Specific assays were used to identify steroids with a particular biological activity, such as an assay for inhibition of mitogen-stimulated growth of human T-cells.
Human heparinized blood, freshly collected, was introduced into tissue culture flasks containing 10 μg/ml phytohaemagglutinin (PHA) in RPMI medium with 10% FCS. Various purified steroids were introduced subsequently at concentrations of 1, 5, and 10 μg/ml. Cultures were incubated for 72 hours, after which time colcemid was added to 1 μg/ml. Cultures were maintained for an additional 2 hours, and cells collected. Miotic figures were estimated using standard cytochemical techniques, following Giemsa staining.

rabbit NHE3 = rabbit NHE3 (Oryctolagus cuniculus, UniProt P26432); settings: 10 μg/ml, acid preloaded 40 mM NH4Cl, FIG. 10
rabbit NHE3, sequence (P26432 30-832): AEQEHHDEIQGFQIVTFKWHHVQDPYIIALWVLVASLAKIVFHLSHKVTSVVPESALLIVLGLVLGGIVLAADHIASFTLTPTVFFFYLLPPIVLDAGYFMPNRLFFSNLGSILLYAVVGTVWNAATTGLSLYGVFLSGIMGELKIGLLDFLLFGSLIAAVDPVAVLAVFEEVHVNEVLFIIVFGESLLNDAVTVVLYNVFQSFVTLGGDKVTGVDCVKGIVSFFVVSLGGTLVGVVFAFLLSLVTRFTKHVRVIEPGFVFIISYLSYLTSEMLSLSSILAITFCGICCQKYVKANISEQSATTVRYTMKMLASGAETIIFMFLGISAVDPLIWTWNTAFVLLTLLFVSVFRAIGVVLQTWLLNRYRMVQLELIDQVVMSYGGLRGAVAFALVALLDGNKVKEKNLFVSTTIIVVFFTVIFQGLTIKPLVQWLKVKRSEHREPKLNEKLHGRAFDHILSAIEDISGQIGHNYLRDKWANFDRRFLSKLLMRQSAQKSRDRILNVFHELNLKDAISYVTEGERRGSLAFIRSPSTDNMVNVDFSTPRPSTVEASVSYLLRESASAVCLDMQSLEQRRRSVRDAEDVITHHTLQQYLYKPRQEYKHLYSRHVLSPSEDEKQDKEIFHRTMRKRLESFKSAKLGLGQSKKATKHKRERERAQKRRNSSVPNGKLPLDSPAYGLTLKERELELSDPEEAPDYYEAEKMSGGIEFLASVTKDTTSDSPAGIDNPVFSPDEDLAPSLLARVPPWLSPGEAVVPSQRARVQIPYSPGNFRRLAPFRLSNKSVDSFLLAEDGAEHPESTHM
Method: Internal pH was measured either following acid loading or in the absence of an acid-loading challenge, with the results shown in FIGS. 1A and 1B.
Specifically, PS120 fibroblasts transfected with rabbit NHE3 were grown in supplemented Dulbecco's-modified Eagle's medium as described by Levine et al., J. Biol. Chem. 268, 1993, 25527-25535. […] For cells not acid-preloaded, the actual internal pH value was monitored as a function of time following addition of squalamine, with the results depicted in FIG. 1B.
PS120 fibroblasts transfected with rabbit NHE3 were grown and acid preloaded by exposure to 40 mM NH4 Cl as described above in conjunction with FIGS. 1A and 1B. Internal cellular pH changes expressed as the rate of pH recovery as a function of restored extracellular sodium ion concentration following exposure to 10 μg/ml of the compound were assayed with the fluorescent dye BCECF-AM as described above.

CC(C)CCC[C@@H](C)[C@H]1CC[C@H]2[C@@H]3CC[C@H]4C[C@@H](NCCCNCCCCNCCCN)CC[C@]4(C)[C@H]3CC[C@]12C [Compound 353]
effect on endothelial cord formation ([1]; 0.1 μg/ml): +
effect on endothelial cord formation ([1]; 1.0 μg/ml): +
effect on endothelial cord formation ([1]; 10.0 μg/ml): +
minimal effective concentration ([1]; Homo sapiens, Endothelial cell, Table II, read-out: Minimum Effective Concentration, Cord Formation): 10 µg/mL
vitelline capillary regression, potency in words [2]: no effect on the chick embryo capillary bed
IC50 (Human melanoma WM 1167): 3 µg/mL (≈ 5.24 µM)
IC50 (Lewis lung carcinoma [3]): 1.9 µg/mL (≈ 3.32 µM)
mode of cell death (human melanoma): apoptotic cell death has been induced
MIC (C. albicans): 32 µg/mL (≈ 55.8 µM)
MIC (E. coli): 128 µg/mL (≈ 223 µM)
MIC (P. aerug): 64 µg/mL (≈ 112 µM)
MIC (S. aureus): 16 µg/mL (≈ 27.9 µM)
similarity of pharmacologic activity in tadpole assay ([4]; in vivo): effects like those produced by compound 1436

CC(C)[C@@H](CC[C@@H](C)[C@H]1CC[C@H]2[C@@H]3[C@H](O)C[C@H]4C[C@@H](NCCCNCCCCNCCCN)CC[C@]4(C)[C@H]3CC[C@]12C)OS(=O)(=O)O [Compound 1436]
vitelline capillary regression, potency in words [2]: about the same potency as squalamine
impact on tumor volume (B16 melanoma): no significant impact on tumor volume
cancer cells inhibited in vitro [5]: INHIBITED
cancer cells inhibited in vitro [6]: INHIBITED
cancer cells inhibited in vitro [7]: INHIBITED
non-transformed cells inhibited in vitro [8]: INHIBITED
cancer cells inhibited in vitro (Human melanoma WM 1617): INHIBITED
non-transformed cells inhibited in vitro [9]: INHIBITED
cancer cells inhibited in vitro (Lewis lung carcinoma [10]): INHIBITED
cancer cells inhibited in vitro (Murine B16 melanoma): INHIBITED
cancer cells inhibited in vitro (Murine L1210 leukemia): INHIBITED
non-transformed cells inhibited in vitro [11]: INHIBITED
non-transformed cells inhibited in vitro [12]: INHIBITED
survival of mice bearing L1210 leukemia [13]: significant prolongation of life
P-24 Elisa (HIV clinical isolate): 9
viability at 168 h, 0.5 µM ([14]; 0.5 μM): 91%
viability at 168 h, 10 µM ([14]; 10 μM): 95%
viability at 168 h ([14]; 10 μg/ml, read-out: lymphocyte viability): 95%
viability at 168 h, 20 µM ([14]; 20 μM): 90.1%
hyperglycemia [15]: caused hyperglycemia in mice
growth of human coronary artery smooth muscle [16]: suppress in vitro the growth
reduction in growth ([17]; 1 mg/kg QTD i.p.): about 10%
suppression of growth of mice ([17]; 10 mg/kg QTD i.p., after 6 doses, about 1 month): growth was almost completely inhibited
apparent health of treated animals ([17]; mouse, in vivo): all were active, normally proportioned, not-cachectic, and in excellent apparent clinical health
duration of effect followed without significant change [18]: 30 min
heart rate [18]: no significant increase in heart rate
atrial pacemaker and conduction [19]: remained vigorous
mode of cell death (human melanoma): same highly selective mechanism of killing
Tadpole M (merarocytes) [20]: +
time to death of tadpole ([4]; 10 μg/ml): about 2 hours
tadpole response ([4]; 10 μg/ml, about 1 hour): Gradual reduction in overall activity. Heart beat remained strong, suggesting nervous system depression. Melanocytes over head and tail began to swell, first exhibiting visibly distinct nuclei, followed by rupture into fragments
inhibition at 10 µg/mL (human lymphocytes): > 75%
inhibition of rabbit NHE3 (rate of pH recovery) (rabbit NHE3): inhibit rabbit NHE3
